Results: US20230312522A1, “CYP46A1 INHIBITORS AND METHODS OF USE THEREOF” (Sage Therapeutics, Inc., priority 2020, published 2023)

The compounds below were run against CYP46A1 (Homo sapiens (Human), UniProt Q9Y6A2) (assay: CYP46A1 enzyme assay (testosterone substrate, HPLC-MS)). Conditions: CYP46A1 5 μM, Testosterone 10 mM, NADPH-generating system, 37° C., 15 minutes.
Assay type: biochemical
Experimental: Briefly, in a 384-well plate format, 10 μL per well of an enzyme-substrate mixture of CYP46A1 (5 μM final concentration) and Testosterone ([…] final concentration) were dispensed to wells containing test compound. For CYP46A1 titration, 5 μL per well of serially diluted CYP46A1 (concentrations including 10 μM, 5 μM, and 2.5 μM) and Testosterone (concentration of […]) were dispensed. For Testosterone titration, 5 μL per well of serially diluted Testosterone (concentrations including 10 μM, 5 μM, and 2.5 μM) and CYP46A1 (concentration of 5 μM) were dispensed. The plates were centrifuged at 1000 rpm for 30 seconds, and then sealed and incubated at 37° C. for 30 minutes. The plate was removed from the incubator, and then 10 μL per well of NADPH-generating system were dispensed to initiate the reaction. The plates were incubated at 37° C. for 15 minutes, added with 80 μL per well of 100% methanol consisting 1 ng/ml diclofenac as internal standard, and then transferred for HPLC-MS.
In Table 2, A indicates a CYP46A1 IC50<0.1 μM, B indicates a CYP46A1 IC50 (μM) of 0.1 μM to <1.0 μM, and C indicates a CYP46A1 IC50 (μM) of ≥1.0 μM

Sequence of CYP46A1 (Q9Y6A2 whole entry, species assumed): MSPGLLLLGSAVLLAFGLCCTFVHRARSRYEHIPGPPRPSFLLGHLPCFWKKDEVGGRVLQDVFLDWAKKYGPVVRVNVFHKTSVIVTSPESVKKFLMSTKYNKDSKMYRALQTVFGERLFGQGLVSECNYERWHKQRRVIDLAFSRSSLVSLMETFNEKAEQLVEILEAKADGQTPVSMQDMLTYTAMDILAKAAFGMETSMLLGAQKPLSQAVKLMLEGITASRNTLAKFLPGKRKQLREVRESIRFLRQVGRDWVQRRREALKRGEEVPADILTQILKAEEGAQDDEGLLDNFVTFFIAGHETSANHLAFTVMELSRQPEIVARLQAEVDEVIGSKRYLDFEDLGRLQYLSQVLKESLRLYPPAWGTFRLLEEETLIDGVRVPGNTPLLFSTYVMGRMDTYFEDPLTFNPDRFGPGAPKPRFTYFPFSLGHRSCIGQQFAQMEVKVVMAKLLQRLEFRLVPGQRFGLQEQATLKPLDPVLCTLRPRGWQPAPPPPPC

Question: How did the IC50 turn out when `O=C(c1cccnc1-c1ccncn1)N1CCC(F)(Cc2ccc(F)cc2)CC1` [Compound 1, (4-fluoro-4-(4-fluorobenzyl)piperidin-1-yl)(2-(pyrimidin-4-yl)pyridin-3-yl)methanone] was run?
Answer: The IC50 was under 100 nM.

Question: For `O=C(c1cccnc1-c1ccncn1)N1CCC(F)(CC2CCOCC2)CC1` [Compound 2, (4-fluoro-4-((tetrahydro-2H-pyran-4-yl)methyl)piperidin-1-yl)(2-(pyrimidin-4-yl)pyridin-3-yl)methanone], which IC50 is on record?
Answer: Its IC50 is at least 1000 nM.

Question: For `O=C(c1cccnc1-c1ccncc1)N1CCC(F)(CC2CCOCC2)CC1` [Compound 3], which IC50 is on record?
Answer: Its IC50 is at least 1000 nM.

Question: Which IC50 does the source give for `O=C(c1cccnc1-c1ccncn1)N1CCC(F)(Cc2ccc(C(F)(F)F)cc2)CC1` [Compound 4, (4-fluoro-4-(4-(trifluoromethyl)benzyl)piperidin-1-yl)(2-(pyrimidin-4-yl)pyridin-3-yl)methanone] here?
Answer: Its IC50 is under 100 nM.

Question: `O=C(c1cccnc1-c1ccncn1)N1CCC(F)(Cc2ccccn2)CC1` [Compound 5, (4-fluoro-4-(pyridin-2-ylmethyl)piperidin-1-yl)(2-(pyrimidin-4-yl)pyridin-3-yl)methanone] was tested. Which IC50 did it give?
Answer: The IC50 was under 100 nM.

Question: Which IC50 does the source give for `N#Cc1ccc(CC2(F)CCN(C(=O)c3cccnc3-c3ccncn3)CC2)cc1` [Compound 6, 4-((4-fluoro-1-(2-(pyrimidin-4-yl)nicotinoyl)piperidin-4-yl)methyl)benzonitrile] here?
Answer: The IC50 was under 100 nM.

Question: For `O=C(c1cccnc1-c1ccncn1)N1CCC(F)(Cc2ccc(C3CC3)cn2)CC1` [Compound 7, (4-((5-cyclopropylpyridin-2-yl)methyl)-4-fluoropiperidin-1-yl)(2-(pyrimidin-4-yl)pyridin-3-yl)methanone], which IC50 is on record?
Answer: Its IC50 is under 100 nM.

Question: For `N#Cc1ccc(CC2(F)CCN(C(=O)c3cccnc3-c3ccncn3)CC2)c(F)c1` [Compound 9, 3-fluoro-4-((4-fluoro-1-(2-(pyrimidin-4-yl)nicotinoyl)piperidin-4-yl)methyl)benzonitrile], which IC50 is on record?
Answer: Its IC50 is under 100 nM.

Question: How did the IC50 turn out when `O=C(c1cccnc1-c1ccncn1)N1CCC(F)(Cc2ccc(F)cn2)CC1` [Compound 10, (4-fluoro-4-((5-fluoropyridin-2-yl)methyl)piperidin-1-yl)(2-(pyrimidin-4-yl)pyridin-3-yl)methanone] was run?
Answer: The IC50 was 100 to 1000 nM.

Question: Which IC50 does the source give for `N#Cc1cc(F)c(CC2(F)CCN(C(=O)c3cccnc3-c3ccncn3)CC2)c(F)c1` [Compound 11, 3,5-difluoro-4-((4-fluoro-1-(2-(pyrimidin-4-yl)nicotinoyl)piperidin-4-yl)methyl)benzonitrile] here?
Answer: The IC50 was under 100 nM.

Question: With `O=C(c1cccnc1-c1ccncn1)N1CCC(F)(C(=O)c2ccc(C(F)(F)F)cc2)CC1` [Compound 12, (4-fluoro-1-(2-(pyrimidin-4-yl)nicotinoyl)piperidin-4-yl)(4-(trifluoromethyl)phenyl)methanone] as the compound, how does the IC50 read?
Answer: Its IC50 is 100 to 1000 nM.

Question: How did the IC50 turn out when `N#Cc1ccc([C@H](O)C2(F)CCN(C(=O)c3cccnc3-c3ccncn3)CC2)c(F)c1` [Compound 15] was run?
Answer: Its IC50 is under 100 nM.

Question: For `N#Cc1ccc([C@@H](O)C2(F)CCN(C(=O)c3cccnc3-c3ccncn3)CC2)c(F)c1` [Compound 16], which IC50 is on record?
Answer: The IC50 was 100 to 1000 nM.

Question: How did the IC50 turn out when `N#Cc1ccc(C(=O)C2(F)CCN(C(=O)c3cccnc3-c3ccncn3)CC2)c(F)c1` [Compound 17, 3-fluoro-4-(4-fluoro-1-(2-(pyrimidin-4-yl)nicotinoyl)piperidine-4-carbonyl)benzonitrile] was run?
Answer: Its IC50 is 100 to 1000 nM.

Question: Which IC50 does the source give for `N#Cc1ccc(CC2(F)CCN(C(=O)c3cccnc3-c3ccncn3)CC2)nc1` [Compound 21, 6-((4-fluoro-1-(2-(pyrimidin-4-yl)nicotinoyl)piperidin-4-yl)methyl)nicotinonitrile] here?
Answer: Its IC50 is 100 to 1000 nM.

Question: With `O=C(c1cccnc1-c1ccncn1)N1CCC(F)(Cc2cc(C(F)(F)F)ccn2)CC1` [Compound 25, (4-fluoro-4-((4-(trifluoromethyl)pyridin-2-yl)methyl)piperidin-1-yl)(2-(pyrimidin-4-yl)pyridin-3-yl)methanone] as the compound, how does the IC50 read?
Answer: Its IC50 is 100 to 1000 nM.

Question: `O=C(c1cccnc1-c1ccncn1)N1CCC(F)(Cc2ccc(OC(F)(F)F)cn2)CC1` [Compound 27, (4-fluoro-4-((5-(trifluoromethoxy)pyridin-2-yl)methyl)piperidin-1-yl)(2-(pyrimidin-4-yl)pyridin-3-yl)methanone] was tested. Which IC50 did it give?
Answer: The IC50 was 100 to 1000 nM.

Question: For `O=C(c1cccnc1-c1ccncn1)N1CCC(F)(Cc2ncc(Cl)cc2F)CC1` [Compound 30, (4-((5-chloro-3-fluoropyridin-2-yl)methyl)-4-fluoropiperidin-1-yl)(2-(pyrimidin-4-yl)pyridin-3-yl)methanone], which IC50 is on record?
Answer: Its IC50 is 100 to 1000 nM.

Question: For `O=C(c1cccnc1-c1ccncn1)N1CCC(F)(Cc2ccc(C(F)(F)F)nn2)CC1` [Compound 36, (4-fluoro-4-((6-(trifluoromethyl)pyridazin-3-yl)methyl)piperidin-1-yl)(2-(pyrimidin-4-yl)pyridin-3-yl)methanone], which IC50 is on record?
Answer: Its IC50 is 100 to 1000 nM.

Question: With `O=C(c1cccnc1-c1ccncc1)N1CCC(F)(Cc2ccc(C(F)(F)F)nn2)CC1` [Compound 37, [2,4′-bipyridin]-3-yl(4-fluoro-4-((6-(trifluoromethyl)pyridazin-3-yl)methyl)piperidin-1-yl)methanone] as the compound, how does the IC50 read?
Answer: The IC50 was 100 to 1000 nM.

Question: How did the IC50 turn out when `O=C(c1cccnc1-c1ccncn1)N1CCC(F)(Cc2cnc(C(F)(F)F)cn2)CC1` [Compound 40, (4-fluoro-4-((5-(trifluoromethyl)pyrazin-2-yl)methyl)piperidin-1-yl)(2-(pyrimidin-4-yl)pyridin-3-yl)methanone] was run?
Answer: The IC50 was 100 to 1000 nM.

Question: How did the IC50 turn out when `O=C(c1cccnc1-c1ccncn1)N1CCC(F)(Cc2cnc(C(F)(F)F)nc2)CC1` [Compound 41, (4-fluoro-4-((2-(trifluoromethyl)pyrimidin-5-yl)methyl)piperidin-1-yl)(2-(pyrimidin-4-yl)pyridin-3-yl)methanone] was run?
Answer: Its IC50 is 100 to 1000 nM.

Question: For `Cc1ccc(CC2(F)CCN(C(=O)c3cccnc3-c3ccncn3)CC2)nc1` [Compound 42, (4-fluoro-4-((5-methylpyridin-2-yl)methyl)piperidin-1-yl)(2-(pyrimidin-4-yl)pyridin-3-yl)methanone], which IC50 is on record?
Answer: The IC50 was 100 to 1000 nM.

Question: For `O=C(c1cccnc1-c1ccncn1)N1CCC(F)(Cc2cnccn2)CC1` [Compound 44, (4-fluoro-4-(pyrazin-2-ylmethyl)piperidin-1-yl)(2-(pyrimidin-4-yl)pyridin-3-yl)methanone], which IC50 is on record?
Answer: The IC50 was 100 to 1000 nM.

Question: For `O=C(c1cccnc1-c1ccncn1)N1CCC(F)(Cc2cccnn2)CC1` [Compound 48, (4-fluoro-4-(pyridazin-3-ylmethyl)piperidin-1-yl)(2-(pyrimidin-4-yl)pyridin-3-yl)methanone], which IC50 is on record?
Answer: Its IC50 is 100 to 1000 nM.

Question: With `O=C(c1cccnc1-c1ccncc1)N1CCC(F)(Cc2cccnn2)CC1` [Compound 49, [2,4′-bipyridin]-3-yl(4-fluoro-4-(pyridazin-3-ylmethyl)piperidin-1-yl)methanone] as the compound, how does the IC50 read?
Answer: Its IC50 is 100 to 1000 nM.

Question: With `Cc1cnc(CC2(F)CCN(C(=O)c3cccnc3-c3ccncn3)CC2)cn1` [Compound 50, (4-fluoro-4-((5-methylpyrazin-2-yl)methyl)piperidin-1-yl)(2-(pyrimidin-4-yl)pyridin-3-yl)methanone] as the compound, how does the IC50 read?
Answer: The IC50 was 100 to 1000 nM.

Question: With `Cc1ccc(CC2(F)CCN(C(=O)c3cccnc3-c3ccncn3)CC2)cn1` [Compound 53] as the compound, how does the IC50 read?
Answer: Its IC50 is 100 to 1000 nM.
